Results taken from patent publication US20050282743A1, “Molecular interactions in cells” (Arbor Vita Corporation, priority 2001, published 2005).
Read-outs that look alike come from different tables or passages of the source.

Legend:
Experiment in all cases: Apparent affinity (Kd) by titration of PL peptide in the G assay
Format in all cases: binding
[1] = biological target: T1, PDZ-domain polypeptide (GST/PDZ fusion protein) (Homo sapiens, UniProt Q86UL8); conditions: PDZ atrophin-1 interacting Protein, read-out: Peptide Optimal Conc (Kd by titration of the PL peptide)
T1 construct: made in house; host or cells: E. coli (DH5alpha, BL21 or JM109)
T1 sequence (Q86UL8 whole entry, the tested form may be a part): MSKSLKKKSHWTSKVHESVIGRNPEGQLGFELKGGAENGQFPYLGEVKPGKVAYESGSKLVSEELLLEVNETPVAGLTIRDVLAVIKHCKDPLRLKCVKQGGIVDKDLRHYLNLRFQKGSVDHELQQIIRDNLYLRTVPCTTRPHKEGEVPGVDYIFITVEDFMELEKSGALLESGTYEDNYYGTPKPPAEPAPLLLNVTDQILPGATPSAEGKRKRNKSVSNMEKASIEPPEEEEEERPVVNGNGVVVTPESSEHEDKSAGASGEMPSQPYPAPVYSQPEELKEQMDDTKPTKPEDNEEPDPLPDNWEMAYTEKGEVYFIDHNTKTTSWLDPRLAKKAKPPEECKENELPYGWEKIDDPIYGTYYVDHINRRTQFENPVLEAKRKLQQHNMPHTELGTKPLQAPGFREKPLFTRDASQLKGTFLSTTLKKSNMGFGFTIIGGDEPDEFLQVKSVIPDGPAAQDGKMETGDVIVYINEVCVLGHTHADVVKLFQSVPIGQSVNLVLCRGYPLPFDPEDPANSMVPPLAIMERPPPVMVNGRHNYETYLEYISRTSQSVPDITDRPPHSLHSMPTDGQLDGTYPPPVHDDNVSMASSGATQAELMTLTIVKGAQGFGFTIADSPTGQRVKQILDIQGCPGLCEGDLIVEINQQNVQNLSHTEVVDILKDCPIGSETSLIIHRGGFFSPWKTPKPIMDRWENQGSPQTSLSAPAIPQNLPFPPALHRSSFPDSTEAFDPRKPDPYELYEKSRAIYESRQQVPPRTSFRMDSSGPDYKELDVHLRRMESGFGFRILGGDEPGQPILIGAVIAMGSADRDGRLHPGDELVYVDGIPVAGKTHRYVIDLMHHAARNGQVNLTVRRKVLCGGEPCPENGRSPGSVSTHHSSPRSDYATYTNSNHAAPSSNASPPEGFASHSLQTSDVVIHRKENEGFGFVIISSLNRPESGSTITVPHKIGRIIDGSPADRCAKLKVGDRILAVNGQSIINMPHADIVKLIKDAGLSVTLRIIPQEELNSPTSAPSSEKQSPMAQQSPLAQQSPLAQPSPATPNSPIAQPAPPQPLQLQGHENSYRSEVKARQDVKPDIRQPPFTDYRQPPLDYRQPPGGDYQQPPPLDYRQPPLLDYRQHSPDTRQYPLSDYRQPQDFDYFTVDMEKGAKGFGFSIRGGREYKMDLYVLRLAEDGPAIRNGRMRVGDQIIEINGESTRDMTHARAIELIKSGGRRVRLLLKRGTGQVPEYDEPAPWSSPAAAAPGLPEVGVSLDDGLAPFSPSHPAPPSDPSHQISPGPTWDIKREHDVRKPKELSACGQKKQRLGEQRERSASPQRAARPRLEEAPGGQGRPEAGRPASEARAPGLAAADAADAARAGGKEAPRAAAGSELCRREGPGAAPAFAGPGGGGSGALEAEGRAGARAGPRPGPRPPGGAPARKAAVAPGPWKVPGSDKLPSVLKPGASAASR
Summary of the method: (§1)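 A fixed concentration of GST/PDZ fusion protein, 5 ug/ml by default, was mixed in solution with increasing labeled PL peptide (e.g. 0.1 uM-1 mM). Reaction times ranged from 10 minutes to 2 days at 4-37° C. Complexes were separated from free peptide and detected via the label as in the G assay, apparent affinity coming from the saturating concentration.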

[2] = biological target: T2, PDZ-domain polypeptide (GST/PDZ fusion protein) (Homo sapiens, UniProt O75970); conditions: PDZ MUPP-1, PDZ Domain 11; Protein Optimal Conc 5; read-out: Peptide Optimal Conc (Kd by titration of the PL peptide)
T2 construct: made in house; host or cells: E. coli (DH5alpha, BL21 or JM109)
Summary of the method: as §1

[3] = biological target: T3, PDZ-domain polypeptide (GST/PDZ fusion protein) (Homo sapiens, UniProt Q96JH8); conditions: PDZ FLJ 10324, PDZ Domain 1; Protein Optimal Conc 5; read-out: Peptide Optimal Conc (Kd by titration of the PL peptide)
T3 construct: made in house; host or cells: E. coli (DH5alpha, BL21 or JM109)
T3 sequence (Q96JH8 1-1075): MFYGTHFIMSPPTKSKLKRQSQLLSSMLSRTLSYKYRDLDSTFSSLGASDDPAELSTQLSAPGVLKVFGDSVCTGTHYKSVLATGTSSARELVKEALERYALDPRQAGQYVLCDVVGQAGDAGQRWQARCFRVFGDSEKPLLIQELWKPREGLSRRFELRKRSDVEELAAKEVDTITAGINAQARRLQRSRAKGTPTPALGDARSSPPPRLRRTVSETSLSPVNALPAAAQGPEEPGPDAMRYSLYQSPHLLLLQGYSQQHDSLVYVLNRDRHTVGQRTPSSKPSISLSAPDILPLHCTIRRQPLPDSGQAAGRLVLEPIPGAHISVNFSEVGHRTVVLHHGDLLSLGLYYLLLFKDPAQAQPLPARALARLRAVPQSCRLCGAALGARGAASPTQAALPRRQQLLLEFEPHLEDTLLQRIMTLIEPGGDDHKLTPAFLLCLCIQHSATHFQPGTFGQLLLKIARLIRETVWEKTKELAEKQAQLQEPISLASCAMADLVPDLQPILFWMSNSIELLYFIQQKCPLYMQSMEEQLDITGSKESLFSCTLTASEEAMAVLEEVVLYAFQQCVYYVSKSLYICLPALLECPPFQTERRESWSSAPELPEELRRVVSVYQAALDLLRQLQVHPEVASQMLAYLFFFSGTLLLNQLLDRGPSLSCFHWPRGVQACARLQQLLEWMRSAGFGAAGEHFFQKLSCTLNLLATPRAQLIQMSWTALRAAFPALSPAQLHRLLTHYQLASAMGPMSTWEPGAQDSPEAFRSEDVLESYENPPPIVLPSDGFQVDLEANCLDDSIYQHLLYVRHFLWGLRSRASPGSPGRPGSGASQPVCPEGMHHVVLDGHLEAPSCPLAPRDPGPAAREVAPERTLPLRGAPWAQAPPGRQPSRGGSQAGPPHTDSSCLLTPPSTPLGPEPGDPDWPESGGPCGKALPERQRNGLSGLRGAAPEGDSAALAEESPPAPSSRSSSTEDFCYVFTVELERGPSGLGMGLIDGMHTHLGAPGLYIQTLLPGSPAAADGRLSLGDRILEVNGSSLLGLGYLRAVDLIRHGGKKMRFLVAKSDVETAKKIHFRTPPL
Summary of the method: as §1

[4] = biological target: T4, PDZ-domain polypeptide (GST/PDZ fusion protein) (Homo sapiens, UniProt Q6P0Q8); conditions: PDZ KIAA0807(S), PDZ Domain 1; Protein Optimal Conc 5; read-out: Peptide Optimal Conc (Kd by titration of the PL peptide)
T4 construct: made in house; host or cells: E. coli (DH5alpha, BL21 or JM109)
T4 sequence (Q6P0Q8 whole entry, the tested form may be a part): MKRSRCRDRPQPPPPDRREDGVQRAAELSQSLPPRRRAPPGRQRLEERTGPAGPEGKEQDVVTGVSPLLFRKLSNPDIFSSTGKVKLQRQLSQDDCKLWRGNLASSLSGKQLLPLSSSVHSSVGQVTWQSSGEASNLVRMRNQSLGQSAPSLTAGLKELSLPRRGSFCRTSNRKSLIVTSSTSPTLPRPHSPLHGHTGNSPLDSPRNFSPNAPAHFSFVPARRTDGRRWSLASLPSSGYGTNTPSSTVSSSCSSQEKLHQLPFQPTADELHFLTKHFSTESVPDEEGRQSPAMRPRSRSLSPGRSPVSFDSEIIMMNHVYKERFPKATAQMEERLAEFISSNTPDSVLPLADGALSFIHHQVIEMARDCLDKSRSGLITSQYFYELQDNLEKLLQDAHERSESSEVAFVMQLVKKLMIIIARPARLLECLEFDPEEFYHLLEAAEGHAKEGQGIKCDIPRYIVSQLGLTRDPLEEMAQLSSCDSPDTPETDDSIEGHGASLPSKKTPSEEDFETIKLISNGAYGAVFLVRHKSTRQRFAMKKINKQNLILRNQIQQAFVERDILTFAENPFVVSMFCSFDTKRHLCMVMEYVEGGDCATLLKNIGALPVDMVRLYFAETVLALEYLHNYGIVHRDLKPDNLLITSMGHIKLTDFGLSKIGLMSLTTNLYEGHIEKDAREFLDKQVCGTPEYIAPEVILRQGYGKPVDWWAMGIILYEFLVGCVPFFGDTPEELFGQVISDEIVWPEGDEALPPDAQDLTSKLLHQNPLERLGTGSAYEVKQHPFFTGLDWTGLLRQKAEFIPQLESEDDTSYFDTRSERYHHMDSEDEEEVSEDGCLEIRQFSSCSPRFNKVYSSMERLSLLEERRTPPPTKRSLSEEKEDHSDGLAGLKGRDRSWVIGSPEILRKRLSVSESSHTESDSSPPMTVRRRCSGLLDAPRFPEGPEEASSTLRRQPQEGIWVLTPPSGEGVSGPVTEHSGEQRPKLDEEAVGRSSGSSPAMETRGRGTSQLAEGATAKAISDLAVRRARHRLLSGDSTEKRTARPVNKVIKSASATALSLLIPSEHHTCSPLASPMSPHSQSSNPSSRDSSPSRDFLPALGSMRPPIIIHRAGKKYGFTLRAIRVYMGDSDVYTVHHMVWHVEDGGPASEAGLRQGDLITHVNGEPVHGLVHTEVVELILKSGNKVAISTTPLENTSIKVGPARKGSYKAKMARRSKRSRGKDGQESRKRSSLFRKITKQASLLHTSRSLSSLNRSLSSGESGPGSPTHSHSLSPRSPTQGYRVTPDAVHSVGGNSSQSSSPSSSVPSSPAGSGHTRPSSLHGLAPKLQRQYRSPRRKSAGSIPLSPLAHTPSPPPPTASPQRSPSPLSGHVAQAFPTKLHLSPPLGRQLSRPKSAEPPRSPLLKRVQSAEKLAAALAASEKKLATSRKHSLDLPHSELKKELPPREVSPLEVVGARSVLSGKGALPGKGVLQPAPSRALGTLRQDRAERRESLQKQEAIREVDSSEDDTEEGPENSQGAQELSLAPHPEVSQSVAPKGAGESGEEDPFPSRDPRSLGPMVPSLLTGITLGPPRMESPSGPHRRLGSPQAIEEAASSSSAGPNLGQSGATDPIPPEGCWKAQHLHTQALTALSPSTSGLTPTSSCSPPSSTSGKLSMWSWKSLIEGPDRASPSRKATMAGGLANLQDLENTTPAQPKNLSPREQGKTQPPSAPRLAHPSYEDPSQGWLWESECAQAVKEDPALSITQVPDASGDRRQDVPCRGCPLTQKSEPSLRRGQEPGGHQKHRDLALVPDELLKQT
Summary of the method: as §1

In the case of `CC[C@H](C)[C@H](NC(=O)[C@H](CCCCN)NC(=O)[C@@H](NC(=O)[C@H](CO)NC(=O)[C@@H]1CCCN1C(=O)[C@H](Cc1ccccc1)NC(=O)[C@@H](NC(=O)[C@@H](NC(=O)[C@H](CCCNC(=N)N)NC(=O)[C@H](CCC(=O)O)NC(=O)[C@H](CC(C)C)NC(=O)[C@H](CC(C)C)NC(=O)[C@H](CC(C)C)NC(=O)[C@@H](NC(=O)CNC(=O)[C@@H](NC(=O)CCCC[C@@H]1SC[C@@H]2NC(=O)N[C@@H]21)C(C)C)[C@@H](C)O)C(C)C)[C@@H](C)CC)C(C)C)C(=O)N[C@@H](C)C(=O)N[C@H](C(=O)N[C@@H](CC(C)C)C(=O)N[C@H](C(=O)O)C(C)C)[C@@H](C)O` [Adenovirus E4 Type9], the Kd ([1]; PDZ Domain 1, Protein Optimal Conc 0.5) is reported as 20 nM, the Kd ([1]; PDZ Domain 3, Protein Optimal Conc 5) is reported as 100 nM and the Kd [2] is reported as 100 nM. For the same compound, the Kd [3] was 100 nM and the Kd [4] was 200 nM.
